Tests used:
[1] = tested on: [Ca^2+]i in Jurkat T cells; assay: receptor-stimulated Ca2+ influx in Jurkat T cells (anti-CD3 mAb OKT3); assay type: cell-based, human; design: key to T cell [Ca^2+]i (pre) / T cell [Ca^2+]i: NE: no effect; ND: not determined; settings: 10 or 30 μM drug; for T cell [Ca^2+]i: effect the same post- and pre- T cell receptor stimulation; for T cell [Ca^2+]i (post): drug added post T cell receptor stimulation; for T cell [Ca^2+]i (pre): drug added pre T cell receptor stimulation
Experimental: Initially, all drugs are screened using Jurkat T cells incubated with indo-1/AM as outlined below. In the event that there is an effect of the drug on the maximum [Ca^2+]i reached following treatment of the cells with the anti-CD3 mAb […], the drug is evaluated for any effects on the spectral characteristics of indo-1 as outlined in Haverstick and Gray, Mol. Biol. Cell (1993) 4:173. If there is an effect of the drug on the spectral characteristics of indo-1 , the drug is further examined for spectral effects on the combination of fura-red and fluo-3. If there is no effect of the drug on the fura-red/fluo-3 combination, the drug is examined for effects on the maximum [Ca^2+]i reached following OKT3 treatment of cells incubated with 5 μM fura-red and […] as outlined below.
Jurkat cells are incubated in RPMI-1640 plus 5% fbs in the presence of the acetoxymethyl ester of either indo-1 (1 μM) or the combination of fura-red (5 μM) with fluo-3 (1 μM) for one hour at 37° C. Cells are washed three times in buffer A [[…] 4-(2-hydroxyethyl)-1-piperazine ethanesulfonic acid (HEPES), pH 7.4, 3 MM KCl, 1 mM MgCl2, 1 mM CaCl2, 140 mM NaCl, 0.1% glucose] containing 1% fbs and suspended to a final concentration of 1×10^6/ml. Cells are then placed in the 37° C. jacketed cell holder of the SLM 8000C. Antigen receptor engagement is mimicked by the addition of the anti-CD3 monoclonal antibody OKT3 (Gray et al, J. Exp. Med. (1988) 167:1963; Gray et al, J. Immunol. 142:1631). The effect of drug added prior to receptor stimulation or at the plateau phase of Ca^2+ entry is determined as follows:
Prior drug: 10 or 30 μM drug @ 30 seconds, 1 μg/ml OKT3 at 90 seconds
Post drug: 1 μg/ml OKT3 at 30 second, 10 or 30 μM drug @ 120 seconds

[2] = tested on: MDA-468 human breast cancer cells; assay: MDA-468 cell proliferation, tetrazolium dye; assay type: cell-based; design: key to MDA PROLIF: NE: no effect; ND: not determined; settings: human breast cancer cell proliferation, 48 hours
Experimental: (§1) The effect of various drugs on the proliferation of Jurkat T cells, MDA-468 human breast cancer cells and PC3 human prostate cancer cells was determined by incubating the cells with the indicated concentrations of drug for 48 hours. The number of viable cells remaining at the end of the incubation period was evaluated using the procedure outlined in Example 4.
(§2) Cells are plated in triplicate in a 96-well flat-bottomed plate (Jurkat: 5e4 cells/well in RPMI-1640 plus 5% fbs; MDA468: 2.5e4 per well in DMEM plus 5% fbs and 11 μg/ml insulin) in the absence (control) or presence of drug at 3, 10, 30, and 100 μM. An additional control of 100 μM drug in RPMI-1640 plus 5% fbs or DMEM plus 5% fbs and 11 μg/Ml insulin with no cells is included with each run to control for possible drug interactions with the dye. The plate is then placed in a 5% CO2 37° C. incubator for 44 to 48 hours. 20 μl of dye solution containing a tetrazolium dye (3-(4,5-dimethylthiazol-2-yl)-5-(3-carboxymethoxyphenyl)-2-(4-sulfophenyl)-2H-tetrazolium, Owen's reagent) plus coupling reagent (phenazine methosulfate) is added to each well, the plate is returned to the incubator, and the absorbance at 490 nm is read using an ELISA plate reader 3 to 4 h (Jurkat cells) or 2 to 3 h (MDA-468 cells) later. All data are presented as percent of control (no drug addition). With this protocol, it is possible to determine the effect of 5 drugs at 4 concentrations in a single 96-well plate as outlined below: […]

Jurkat T cells = assay: Jurkat cell proliferation, tetrazolium dye; assay type: cell-based, human; design: key to T cell PROLIF: NE: no effect; ND: not determined; settings: 48 hours
Experimental: as §1, §2

[3] = tested on: [Ca^2+]i in MDA-468 cells; assay: EGF receptor-stimulated Ca2+ influx in MDA-468 cells; assay type: cell-based, human; design: key: NE: no effect; ND: not determined; settings: for MDA [CA^2+]i: effect the same post- and pre- EGF receptor stimulation
Experimental: MDA468 cells are incubated with either indo-1 or the combination of fura-red/fluo-3 for 1 hour while still adherent in the maintenance flask in DMEM plus 5% fbs and 1 μg/ml insulin. Cells are removed by gentle scraping and washed three times in buffer A containing 1% charcoal stripped fbs (Nelson et al, Br. J. Cancer (1991) 63:933). The cells are then suspended to a final concentration of 1e6/ml and used as above in the SLM. For the human breast cancer cells, Ca^2+ entry is stimulated by the addition of 25 ng/ml EGF, rather than the antibody used above.

[4] = tested on: VG Ca^2+ current in Jurkat cells; assay: perforated patch clamp, voltage gated (VG) Ca2+ current; assay type: cell-based, human
Experimental: (§3) All recordings were performed using the perforated patch method (Horn et al, J. Gen. Physiol. (1988) 92:145) of the gigaseal patch clamp technique (Hammil et al, Pflugers Arch (1981) 391:85) with microelectrodes of 5-10 megohm series resistance. In all solutions for voltage clamp, K^+ was replaced with Cs^+ to block outward K^+ currents (Fox et al, J. Physiol. (Lond.) (1987) 392:149). The bath solution contained (in mM): NaCl, 155; CsCl, 4.5; CaCl2, 2; MgCl2, 1; D-glucose, 5; HEPES, 10 (pH 7.4 with NaOH). The pipette solution contained (in mM): CsCl, 55; Cesium methanesulfonate, 70; CaCl2, 1; MgCl2, 7; HEPES, 10 (pH 7.3 with NaOH). Nystatin was made as a stock solution of 6 mg/100 μl DMSO, and 2 μl of the stock was added to 1 ml of the pipette solution for use. Both pipette and bath solutions were 290-300 mOsm. Experiments were performed on cells at room temperature using the Axopatch-1D patch clamp (Axon Instruments, Foster City, Calif.) after correction of junction potentials and leak subtraction. Records were low-pass filtered at 500 Hz, and the data were collected, stored and analyzed using the pClamp software program (Axon Instruments). For the non-voltage gated current traces, data is presented either as the tracing from a chart recorder or from the digital data in which the current was measured at 5 second intervals and plotted as individual points.

[5] = tested on: NVG current in Jurkat cells; assay: perforated patch clamp, non-voltage gated (NVG) current; assay type: cell-based, human
Experimental: as §3

Row | SMILES | T cell [Ca^2+]i [1] | MDA PROLIF [2] | T cell PROLIF (Jurkat T cells) | MDA [CA^2+]i [3] | further results
1 | COc1cc(C(O)C(O)CO)ccc1O (stereo not drawn) [3-methoxy, 4-hydroxyphenylglycerol] | NE | NE | – | – | –
2 | CC(NCCC(c1ccccc1)c1ccccc1)c1ccccc1 (stereo not drawn) [fendiline] | ↓ | ↓ | ↓ | ↑ | –
3 | C/C=C(/C)C(=O)O[C@H]1C(C)=C2[C@H]([C@@H]1OC(=O)CCCCCCC)[C@@](C)(OC(C)=O)C[C@H](OC(=O)CCC)[C@@]1(O)[C@H]2OC(=O)[C@@]1(C)O [thapsigargin] | – | – | – | – | mean maximum VG Ca^2+ current following addition ([4]; 300 nM thapsigargin, n=10, unstimulated 18.7 pA): 30.6 pA; mean maximum magnitude of the induced NVG current ([5]; imposed membrane potential −60 mV, n=38): 3.6 pA
4 | Nc1cc(-c2ccncc2)c[nH]c1=O [amrinone] | NE | NE | – | – | –
5 | O=C1CN(/N=C/c2ccc(-c3ccc([N+](=O)[O-])cc3)o2)C(=O)N1 [datrolene] | NE | NE | – | NE | –
6 | CN1CCN(C(c2ccccc2)c2ccccc2)CC1 [cyclizine] | NE | NE | – | – | –
7 | c1ccc2nc(N3CCNCC3)ccc2c1 [quipazine] | NE | NE | – | – | –
8 | CC(C)COCC(CN(Cc1ccccc1)c1ccccc1)N1CCCC1 (stereo not drawn) [bepridil] | – | ↓ | ↓ | ↑ | T cell [Ca^2+]i (post) [1]: ↓ (post); T cell [Ca^2+]i (pre) [1]: NE (pre)
9 | COc1cc(CCO)ccc1O [3-methoxy, 4-hydroxyphenylethanol] | NE | NE | – | – | –
10 | C(=C\c1ccccc1)/CN1CCN(C(c2ccccc2)c2ccccc2)CC1 [cinnarizine] | ↓ | NE | ↓ | NE | –
11 | Cc1cccc(CN2CCN(C(c3ccccc3)c3ccc(Cl)cc3)CC2)c1 (stereo not drawn) [meclizine] | – | NE | (↓) | – | T cell [Ca^2+]i (post) [1]: ↓ (post); T cell [Ca^2+]i (pre) [1]: NE (pre)
12 | O=c1n(CCCN2CCN(c3cccc(Cl)c3)CC2)nc2ccccn12 [trazodone] | NE | NE | NE | – | –
13 | Cc1cccc(C)c1NC(=O)CN1CCN(CCCC(c2ccc(F)cc2)c2ccc(F)cc2)CC1 [lidoflazine] | ↓ | (↓) | ↓ | – | –
14 | COc1cc(/C=C/C(=O)CC(=O)/C=C/c2ccc(O)c(OC)c2)ccc1O [curcumin] | – | NE | ↓ | – | –
15 | [Cl][Mn][Cl] [MnCl2] | – | – | – | – | increase of the VG Ca^2+ current ([4]; 0.3 mM Mn^2+ in medium containing 2 mM Ca^2+): about 10%; effect on the VG Ca^2+ current ([4]; amiloride 100 μM, MnCl2 300 μM, NiCl2 1 mM, W-7 alone (unstimulated current)): not blocked; effect on the thapsigargin-induced NVG current ([5]; membrane potential −60 mV, 300 nM thapsigargin, amiloride 100 μM, MnCl2 300 μM, NiCl2 1 mM, W-7 30 μM, NDGA 10 μM): reversibly blocked
16 | OCCOCCN1CCN(C(c2ccccc2)c2ccc(Cl)cc2)CC1 (stereo not drawn) [hydroxyzine] | NE | NE | NE | – | –
17 | CC(NC(C)(C)C)C(=O)c1cccc(Cl)c1 (stereo not drawn) [bupropion] | NE | NE | NE | – | –
18 | CCn1cc(C(=O)O)c(=O)c2cnc(N3CCNCC3)nc21 [pipenidic acid] | NE | NE | NE | – | –
19 | O=C(O)c1cccnc1Nc1cccc(C(F)(F)F)c1 [niflumic acid] | – | NE | (↓) | – | T cell [Ca^2+]i (post) [1]: ↓ (post); T cell [Ca^2+]i (pre) [1]: NE (pre)
20 | OCCN1CCN(CCCN2c3ccccc3Sc3ccc(C(F)(F)F)cc32)CC1 [fluphenazine] | ↓ | ↓ | ↓ | ↓ | –
21 | Fc1ccc(C(c2ccc(F)cc2)N2CCN(C/C=C/c3ccccc3)CC2)cc1 [flunarizine] | ↓ | NE | ↓ | NE | –
22 | COc1ccc2cc1Oc1ccc(cc1)C[C@H]1c3cc(c(OC)cc3CCN1C)Oc1c(OC)c(OC)cc3c1[C@H](C2)N(C)CC3 [tetrandrine, 6,6′,7,12-tetramethoxy-2,2′-dimethyl-baman] | – | – | – | – | T cell [Ca^2+]i (pre) [1]: NE (pre); MDA [CA^2+]i (pre) ([3]; drug added pre EGF receptor stimulation): NE (pre)
23 | CN1CCN2c3ccccc3Cc3ccccc3C2C1 (stereo not drawn) [mianserin] | NE | NE | NE | – | –
24 | CN1CCN(C(c2ccccc2)c2ccc(Cl)cc2)CC1 (stereo not drawn) [chlorcyclizine] | NE | ↓ | – | ↑ | –
25 | COC(=O)C1=C(C)NC(C)=C(C(=O)OCCN(C)Cc2ccccc2)C1c1cccc([N+](=O)[O-])c1 (stereo not drawn) [nicardipine] | – | – | – | NE | –
26 | Cc1nc(C)c(C)nc1C [tetranethylpyrazine] | NE | NE | – | – | –
27 | CCN(CC)C(=O)N1CCN(C)CC1 [diethylcarbamazine] | NE | NE | NE | NE | –
28 | C1CCC(C(CC2CCCCN2)C2CCCCC2)CC1 (stereo not drawn) [perhexiline] | – | ↓ | ↓ | ↑ | T cell [Ca^2+]i (post) [1]: ↑ (post); T cell [Ca^2+]i (pre) [1]: ↓(pre)
29 | COC(=O)C1=C(C)NC(C)=C(C(=O)OC(C)C)C1c1cccc2nonc12 (stereo not drawn) [isradipine] | ↓ | NE | NE | – | –
